We go through eleven compounds from patent US4816247A, “Emulsion compositions for administration of sparingly water soluble ionizable hydrophobic drugs” (American Cyanamid Company, priority 1985, dated 1989).

For data set [1] the following is noted: commercial product solution; cited from earlier work.
The test system of another data set is soft tissues / vein. The conditions noted are these: cited from earlier work.
The nature of data set [2]: Absorption and excretion of antiarthritic triazine compound, candidate dosage forms. The conditions noted are these: in vivo. How it is done:
(§1) Because the antiarthritic triazine compound is a base, organic acids as counter-ions were studied to improve drug solubility. […] Additional drug complexes were prepared with various organic and inorganic acids. […] The inherent insolubility of the drug appears to be responsible, to some extent, for the preceding results. In order to overcome the drug insolubility problem one of the objectives considered was to design a dosage form which would improve drug absorption when given by intravenous, intramuscular or intra-articular injection.

Data set [3] is classed as physicochemical. As to the method:
as §1

Data set [4] concerns marginal ear vein of rabbits. Kind of data set: Peripheral vein irritation, intravenous infusion in marginal ear vein of rabbits, gross postmortem findings. The data set is classed as in vivo, rabbit. Also noted: key to External: Reddened / External: Yellow Deposit / Subcutaneous: Hemorrhage / Vascular Lumen: Yellow Deposit / External: Swollen / Subcutaneous: Edema / Subcutaneous: Yellow Deposit / Vascular Lumen: Blood Clot: +: Positive or present.; -: Negative or absent. How it is done: (§2) The emulsin drug delivery system formulation of Emulsion 3 in Table III was tested in two species of animals, for peripheral vein irritation in order to determine the occurrence of local injection site adverse reactions. Also tested was a 1.0 mg/ml solution of bisantrene hydrochloride in 5% dextrose/water and a composition of the Emulsion 3 vehicle without bisantrene base. The two species of animals used were rabbits and dogs. The formulations were given intravenously in a peripheral vein using a Butterfly infusion set (Becton, Dickinson Co., Inc., Rutherford, N.J). The marginal ear vein was used in the rabbit and the saphenous or the cephalic vein of the leg was used in the dog.
(§3) The formulations were given below by slow intravenous infusion using a Sage syringe pump (Sage Instruments, Orion Research Inc., Cambridge, Ma.) over a 2 hour period. The animals were restrained but unanesthetized during the infusion. After the infusion, the animals were returned to their cages and offered food. The animals were sacrificed one day after the infusion.
(§4) At sacrifice, the infused vein was opened from the point of infusion and cardiad for several centimeters. […] FIGS. 3, 4 and 5 are comprised of representative photographs of the opened peripheral veins of dogs as hereinabove described and verify the findings stated above.

The test system of the next data set is peripheral vein of dogs. As to the kind of experiment: Peripheral vein irritation, intravenous infusion in peripheral vein of dogs, gross postmortem findings. The data set is classed as in vivo, dog. How it is done: as §2, §3, §4
In the next data set the test system is dogs. As to the kind of experiment: Clinical signs and injection site findings, repeated intravenous infusion in dogs. Conditions: dog.
In a further data set the test system is white blood cell counts. Kind of data set: Group mean white blood cell counts, repeated intravenous infusion in dogs. The data set is classed as in vivo. The conditions noted are these: dog. As to the method:
A comparison study of the group mean white blood cell counts (WBC×10^-3) was conducted separately for both the male and female animals in each group. The WBC counts of all animals were performed 7 days before dosing. Doses were administered on days 0, 21 and 42, whereas additional WBC counts on all animals were made on days 3, 7, 14, 20, 24, 28, 35, 41, 45, 49 and 56. The mean data from this test are recorded in Table VI and the group mean white blood cell counts for males and females are plotted separately in FIGS. 6 and 7 respectively.

Data set [5] can be described thus: Solubility of bisantrene base and its oleate ion-pair in water, oils and emulsions. The data set is classed as physicochemical. Conditions: in words. The source says: Bisantrene base is insoluble in water, oils, oil phase of emulsions or preformed commercial, nutritional emulsions such as Intralipid® and Liposyn®. When Bisantrene base forms an ion-pair with oleic acid the solubility of Bisantrene increases in oils or oil phases of emulsions. Additionally, Bisantrene-oleate ion-pair acts as a surfactant, becomes part of an interfacial emulsion film and stabilizes the emulsion in vitro.

Data set [6] in a line: Solubility of bisantrene in selected media and biological fluids (Table IB, FIGS. 1 and 2). Conditions: in words. The data set is classed as physicochemical. The source says: (§5) In serum and plasma, however due to increase in the pH the solubility drops considerably and this may be the reason that the drug precipitates at the point of infusion. […] Thus, if the drug can be kept in solution long enough to allow complete dilution in the entire blood volume, then the partitioning should take place without the intermediate precipitation.

A further data set has as its system erythrocytes. As to the kind of experiment: Partitioning of bisantrene in blood. In kind it is in vitro ADME. The conditions noted are these: in words.
Description: as §5

Another data set relates to plasma protein. The conditions noted are these: cited from earlier work.
Where [7] appears, read: rabbit, female, 2 h i.v. infusion.
Setting [8] is: rabbit, male, 2 h i.v. infusion.

Converted amounts (≈) assume the structure as drawn. “Also recorded” adds a separate entry of the source. Counter-ions that a name gives are not always drawn.

`CC(C)NCC(O)COc1cccc2ccccc12` (racemic) [Inderal, propanolol]: in data set [1], the “Ambient Solution pH” value was 3.50.
As for `COc1cccc2c1C(=O)c1c(O)c3c(c(O)c1C2=O)C[C@@](O)(C(=O)CO)C[C@@H]3O[C@H]1C[C@H](N)[C@H](O)[C@H](C)O1` [Adriamycin, Doxorubicin], the “effect of extravasation into the soft tissues” value in the data set with soft tissues / vein (intravenous administration in cancer therapy) is reported as “massive tissue necrosis about the site of the attempted intravenous administration”.
Usually Solubility stands for the concentration that dissolves in the medium under given conditions. Consider `CC(C)(C)C(C)(C)Nc1nc(NC(C)(C)C(C)(C)C)nc(N2CC3CCC(CC3)C2)n1` [Antiarthritic Triazine Compound, 3-[4,6-bis[(1,1-2,2-tetramethylpropyl)amino]-s-triazin-2-yl]-3-azabicyclo[3.2.2]nonane], for which, in data set [2], the “parenteral absorption of the drug” value is given as “negligible”. Further, the oral absorption entry in [2] (po) was “slightly better”. Besides, in data set [3], the Solubility was 300 µg/mL (≈ 697 µM), the “increase of solubility not more than” value is 500 to 1000 µg/mL and the solubility in water entry is recorded as “insignificant solubility in water”.
Turning to `C[C@H](N)[C@H](O)c1cccc(O)c1` [Aramine, metaraminol], the “Ambient Solution pH” value in data set [1] is on record as 3.60.
Regarding `OCCOCCN1CCN(C(c2ccccc2)c2ccc(Cl)cc2)CC1` (centres unmarked) [Atarax, hydroxyzine], the “Ambient Solution pH” value in data set [1] is 5.60.
Turning to `C(=N\NC1=NCCN1)/c1c2ccccc2c(/C=N/NC2=NCCN2)c2ccccc12` [Bisantrene HCl], the “yellow or yellow-orange deposits in vascular-lumen” value (in data set [4] (marginal ear vein of rabbits); in the data set on peripheral vein of dogs (peripheral vein of dogs)) was “yellow or yellow-orange deposits which result” in each case. In addition, the entries for the “External: Reddened” value in data set [4] (setting [7]) and in data set [4] (setting [8]) were “+” and “-”, respectively. Moreover, the “External: Yellow Deposit” value in data set [4] (setting [7]) is on record as “+”; in data set [4] (setting [8]), “-”. Moreover, the “Subcutaneous: Hemorrhage” value in data set [4] (setting [7]) and in data set [4] (setting [8]) was “-” each time. The “Vascular Lumen: Yellow Deposit” value in data set [4] (setting [7]) and in data set [4] (setting [8]) was “+” each time. Moreover, the “External: Swollen” value in [4] (setting [8]) was “-”. Moreover, in [4] (setting [8]), the “Subcutaneous: Edema” value was “+”. For the same compound, in [4] (setting [8]), the “Subcutaneous: Yellow Deposit” value was “-”. Also, in [4] (setting [8]), the “Vascular Lumen: Blood Clot” value is “-”. In addition, the “yellow-orange deposit in vascular-lumen, photograph of dog vein” value with peripheral vein of dogs (FIGS. 3A, 3B, 4A, 5A, listed as bisantrene hydrochloride) was “clearly shows the yellow-orange deposits in the vascular-lumen”. Also, the “clinical signs during the intravenous infusion” value with dogs (10 mg/kg, about 2 h infusion) was “none was apparent”. For the same compound, the “swelling of the infused leg” value in the data set with dogs (10 mg/kg, about 2 h infusion) is on record as “three”. Moreover, the “local injection site deposits or binding of the drug, inflammation and phlebitis” value in the data set on dogs (conclusion of study) is reported as “present”. In addition, the “group mean white blood cell count” value in the data set on white blood cell counts (female, day 3, 10 mg/kg i.v. on days 0, 21, 42) was 6.3 WBC × 10^-3; in the data set with white blood cell counts (female, day 7, 10 mg/kg i.v. on days 0, 21, 42), 4.5 WBC × 10^-3; with white blood cell counts (female, day 14, 10 mg/kg i.v. on days 0, 21, 42), 8.6 WBC × 10^-3; in the data set on white blood cell counts (female, day 20, 10 mg/kg i.v. on days 0, 21, 42), 10.5 WBC × 10^-3; in the data set on white blood cell counts (female, day 24, 10 mg/kg i.v. on days 0, 21, 42) it was 5.1 WBC × 10^-3; with white blood cell counts (female, day 28, 10 mg/kg i.v. on days 0, 21, 42), 4.1 WBC × 10^-3. The “group mean white blood cell count” value in the data set with white blood cell counts (female, day 35, 10 mg/kg i.v. on days 0, 21, 42) came out at 13.0 WBC × 10^-3; in the data set with white blood cell counts (female, day 41, 10 mg/kg i.v. on days 0, 21, 42) it was 9.7 WBC × 10^-3; with white blood cell counts (female, day 45, 10 mg/kg i.v. on days 0, 21, 42) it was 5.1 WBC × 10^-3; with white blood cell counts (female, day 49, 10 mg/kg i.v. on days 0, 21, 42) it was 6.0 WBC × 10^-3; with white blood cell counts (female, day 56, 10 mg/kg i.v. on days 0, 21, 42) it was 13.2 WBC × 10^-3; in the data set on white blood cell counts (female, day -7 (before dosing)), 10.1 WBC × 10^-3. The “group mean white blood cell count” value turned out to be 7.0 WBC × 10^-3 with white blood cell counts (male, day 3, 10 mg/kg i.v. on days 0, 21, 42); 3.7 WBC × 10^-3 in the data set with white blood cell counts (male, day 7, 10 mg/kg i.v. on days 0, 21, 42); 11.1 WBC × 10^-3 in the data set with white blood cell counts (male, day 14, 10 mg/kg i.v. on days 0, 21, 42); 10.8 WBC × 10^-3 in the data set on white blood cell counts (male, day 20, 10 mg/kg i.v. on days 0, 21, 42); 5.1 WBC × 10^-3 with white blood cell counts (male, day 24, 10 mg/kg i.v. on days 0, 21, 42); 2.9 WBC × 10^-3 in the data set on white blood cell counts (male, day 28, 10 mg/kg i.v. on days 0, 21, 42). The “group mean white blood cell count” value was found to be 13.5 WBC × 10^-3 in the data set on white blood cell counts (male, day 35, 10 mg/kg i.v. on days 0, 21, 42); 11.3 WBC × 10^-3 in the data set on white blood cell counts (male, day 41, 10 mg/kg i.v. on days 0, 21, 42); 5.3 WBC × 10^-3 in the data set on white blood cell counts (male, day 45, 10 mg/kg i.v. on days 0, 21, 42); 3.3 WBC × 10^-3 in the data set with white blood cell counts (male, day 49, 10 mg/kg i.v. on days 0, 21, 42); 12.8 WBC × 10^-3 in the data set with white blood cell counts (male, day 56, 10 mg/kg i.v. on days 0, 21, 42); 11.3 WBC × 10^-3 in the data set with white blood cell counts (male, day -7 (before dosing)).
Regarding `C(=N\NC1=NCCN1)/c1c2ccccc2c(/C=N/NC2=NCCN2)c2ccccc12` [Bisantrene, bis(2-imidazolin-2-ylhydrazone)-9,10-anthracenedicarboxaldehyde], the “solubility in water, oils, oil phase of emulsions or preformed commercial nutritional emulsions” value in [5] is on record as “insoluble”. The “solubility in whole blood” value in data set [6] (compared with plasma and serum) was “much greater than in plasma and serum”. Further, the “solubility characteristics of bisantrene” value in data set [6] is “very sensitive to temperature changes, pH, and various solutes; also recorded: quite soluble in media useful as candidates for I.V. infusions such as normal saline and 5% dextrose”. The partitioning in blood entry with erythrocytes is reported as “eventually partitions into the erythrocytes which then serve as slow release carriers”.
As for `C(=NNC1=NCCN1)c1c2ccccc2c(C=NNC2=NCCN2)c2ccccc12` [Bisantrene-oleate ion-pair], the “solubility in oils or oil phases of emulsions” value in data set [5] (ion-pair with oleic acid) is reported as “increases”.
As to `CC(=O)Nc1ccc(OCC(O)CNC(C)C)cc1` (centres unmarked) [Eraldin, practolol], the “Ambient Solution pH” value in data set [1] was 5.80.
As to `C(=N\NC1=NCCN1)/c1c2ccccc2c(/C=N/NC2=NCCN2)c2ccccc12` [bisantrene dihydrochloride], in the data set on soft tissues / vein (aqueous solution i.v. in mammals), the “problem likely to occur on intravenous injection” value is given as “chemical phlebitis”.
Regarding `CCCCCCCC/C=C\CCCCCCCC(=O)O` [oleic acid], in the data set with plasma protein, the “molecules bound with one molecule of typical plasma protein” value is recorded as “nine”.
